Data taken from ChEMBL document CHEMBL1134106, “Novel heteroaryl replacements of aromatic 3-tetrafluoroethoxy substituents in trifluoro-3-(tertiaryamino)-2-propanols as potent inhibitors of cholesteryl ester transfer protein” (Bioorg Med Chem Lett, 2001).
Each block holds one molecule with its values, some of them ahead of it.

What was measured:
[1] = target: T1, Cholesteryl ester transfer protein (Homo sapiens, UniProt P11597); assay: Inhibition of recombinant human CETP mediated transfer of [3H]cholesteryl ester from HDL to LDL
T1 sequence (P11597 whole entry): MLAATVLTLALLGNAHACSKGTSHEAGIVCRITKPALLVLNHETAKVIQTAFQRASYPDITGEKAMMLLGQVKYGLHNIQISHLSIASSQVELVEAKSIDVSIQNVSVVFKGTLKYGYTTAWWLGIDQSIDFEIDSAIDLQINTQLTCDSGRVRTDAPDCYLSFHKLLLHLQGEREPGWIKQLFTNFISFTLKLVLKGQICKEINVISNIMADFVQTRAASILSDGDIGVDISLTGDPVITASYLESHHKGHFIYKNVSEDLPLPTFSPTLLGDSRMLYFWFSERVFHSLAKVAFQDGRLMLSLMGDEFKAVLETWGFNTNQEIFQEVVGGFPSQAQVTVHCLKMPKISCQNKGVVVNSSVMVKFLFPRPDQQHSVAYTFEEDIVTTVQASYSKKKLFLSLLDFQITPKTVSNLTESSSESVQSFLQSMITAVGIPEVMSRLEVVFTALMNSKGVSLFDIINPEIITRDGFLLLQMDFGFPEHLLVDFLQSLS

[2] = target: T1, Cholesteryl ester transfer protein; assay: In vitro human CETP inhibitory activity assessed by measuring the rate of [3H]cholesteryl ester ([3H]CE) from HDL donor particles to LDL acceptor particles using human serum by serum transfer assay

SMILES: OC(CN(Cc1ccc(F)c(-c2ccco2)c1)c1cccc(Oc2ccccc2)c1)C(F)(F)F (configuration not stated)
IC50 [1]: 0.72 µM

SMILES: OC(CN(Cc1cccc(-c2cccnc2)c1)c1cccc(Oc2ccccc2)c1)C(F)(F)F (configuration not stated)
IC50 [1]: 14.3 µM

More lines, in order of falling IC50 [1], values ahead:

IC50 [2]: 47 µM
IC50 [1]: 4.42 µM
SMILES: OC(CN(Cc1cccc(-c2ccccc2)c1)c1cccc(Oc2ccccc2)c1)C(F)(F)F (configuration not stated)

IC50 [1]: 3.96 µM
SMILES: Cc1ccc(CN(CC(O)C(F)(F)F)c2cccc(Oc3ccccc3)c2)cc1-c1ccco1 (configuration not stated)

IC50 [2]: 83 µM
IC50 [1]: 1.12 µM
SMILES: OC(CN(Cc1cccc(-c2cccs2)c1)c1cccc(Oc2ccccc2)c1)C(F)(F)F (configuration not stated)
